Measured values: PMC11205114, “A Multiomics Perspective on Plant Cell Wall-Degrading Enzyme Production: Insights from the Unexploited Fungus Trichoderma erinaceum” (Journal of Fungi, 2024)

Assays:
[1] = molecular target: T1, TrCel3B (Trichoderma reesei, UniProt G0RJ07); experiment: pNP release at […] nm; format: biochemical; details: pH 5.5, 50 °C (methods; figure legend 60 °C), 30 min
T1 construct: gene cel3b; gene 2622 bp, 96 kDa
T1 sequence (G0RJ07 19-874): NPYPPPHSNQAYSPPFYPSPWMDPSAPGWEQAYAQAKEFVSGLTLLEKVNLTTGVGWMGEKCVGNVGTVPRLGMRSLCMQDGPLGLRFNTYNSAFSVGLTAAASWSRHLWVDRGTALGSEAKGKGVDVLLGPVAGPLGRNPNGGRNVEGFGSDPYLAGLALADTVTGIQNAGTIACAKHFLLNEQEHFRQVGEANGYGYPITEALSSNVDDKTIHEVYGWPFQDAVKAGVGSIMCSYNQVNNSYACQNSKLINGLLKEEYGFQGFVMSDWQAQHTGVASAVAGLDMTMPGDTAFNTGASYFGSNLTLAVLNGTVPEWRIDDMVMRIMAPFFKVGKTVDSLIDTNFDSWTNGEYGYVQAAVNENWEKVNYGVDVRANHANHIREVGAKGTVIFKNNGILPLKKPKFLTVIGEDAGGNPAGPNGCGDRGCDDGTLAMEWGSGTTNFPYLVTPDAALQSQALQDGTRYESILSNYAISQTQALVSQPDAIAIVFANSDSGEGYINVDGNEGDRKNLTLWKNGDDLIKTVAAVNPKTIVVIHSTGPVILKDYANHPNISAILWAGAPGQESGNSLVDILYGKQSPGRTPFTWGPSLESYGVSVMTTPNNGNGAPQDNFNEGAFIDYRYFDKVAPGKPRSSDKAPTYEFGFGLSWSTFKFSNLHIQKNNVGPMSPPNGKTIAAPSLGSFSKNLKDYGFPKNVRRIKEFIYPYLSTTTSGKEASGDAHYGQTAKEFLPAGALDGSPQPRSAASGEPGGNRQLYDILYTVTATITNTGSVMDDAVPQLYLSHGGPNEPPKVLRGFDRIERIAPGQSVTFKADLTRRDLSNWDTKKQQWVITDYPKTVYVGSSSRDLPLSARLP

[2] = molecular target: T1, TrCel3B; experiment: pNPG hydrolysis, pNP release at […] nm; format: biochemical; details: pNPG substrate (5 mM stock), pH 4.5, 60 °C

Row | SMILES | pNP release at 405 nm [1] | % inhibition [2]
1 | O=[N+]([O-])c1ccc(O[C@@H]2O[C@H](CO)[C@@H](O)[C@H](O)[C@H]2O)cc1 [4-nitrophenyl β-D-glucopyranoside] | TeBgl3C and TrCel3B displayed the highest specific activities on pNPG | –
2 | OC[C@H]1OC(O)[C@H](O)[C@@H](O)[C@@H]1O (some centres unmarked) [glucose] | – | TeBgl3C showed a slightly higher tolerance to glucose than TrCel3B
